15 compounds from patent publication US20240217988A1, “ESTROGEN RECEPTOR ANTAGONIST” (Shenzhen Forward Pharmaceuticals Co., Limited, priority 2021, published 2024) can be followed below.

Data set [1] has as its system Human breast cancer cells MCF-7. The data set can be described thus: MCF-7 cell proliferation experiment. Format: cell-based. The conditions noted are these: MCF-7 cells, 72 hours, Cell Titer-Glo. The protocol: Test Example 2: MCF-7 Cell Proliferation Experiment
Human breast cancer cells MCF-7 (HTB-22, purchased from ATCC) were inoculated into a 96-well plate. The culture medium was an MEM (Hyclone, SH30024.01B) culture medium containing 10% of FBS (Gibco, 10099-141), 1% of pyruvic acid (Sigma, S8636), and 1% of nonessential amino acid (Sigma, M7145), and the inoculation density was 4,000 cells/well. The cells were cultured at 37° C., 5% CO2. The compound was prepared into a 20 mM stock solution, which was subjected to gradient dilution to a final concentration of […] with 100% DMSO (Sigma, D2650) and then diluted 20 folds with a culture medium containing 2% of FBS. After 24 hours of culture, the culture medium was removed, 90 μL of a culture medium containing 2% of FBS and 10 μL of drug were added to each well, while 10 μL of DMSO was added to the control group, and they were gently shaken and mixed. The blank group only contained 100 μL of 2% FBS culture medium. They were placed in an incubator and cultured at 37° C., 5% CO2. After 72 hours, 50 μL of mixed Cell Titer-Glo (Promega, G7571) was added. They were shaken and mixed uniformly, and placed at room temperature for 10 min. The chemiluminescence signal value was determined. The negative control was 0.5% DMSO well.

A short description of data set [2]: Stability in human liver microsomes in vitro. It counts as in vitro ADME. Particulars: for microsomal CLint: read-out: CLint(mic). The method, then: Test Example 4: Test for Stability in Human Liver Microsomes In Vitro Eight 96-well incubation plates were prepared and named [NT], Blank60 and NCF60, respectively. […] No test compound or control compound was added to Blank60 plate, and samples were taken after incubation for 60 min. NCF60 plate was incubated with a potassium phosphate buffer instead of an NADPH regeneration system solution (Sigma, N0505) for 60 min. […] Only the microsome working solution was added to Blank60 plate, and the incubation plates Blank60, T5, T15, T30, T45 and T60 except T0 and NCF60 were then placed in a water bath at 37° C. and pre-incubated for about 10 min. To the samples of T0 plate, 600 μL of a stop solution (acetonitrile:methanol (95:5, v/v) solution containing 100 ng/mL of tolbutamide (Sigma, T0891)) was added first, and the NADPH regeneration system working solution was then added. 98 μL of a potassium phosphate buffer was added to each well of NCF60 plate and incubated for 60 min. After the pre-incubation in the incubation plates Blank60, T5, T15, T30, T45 and T60 was completed, 98 μL of the NADPH regeneration system working solution was added to each sample well to initiate the reaction. After an appropriate incubation time (such as 5, 15, 30, 45 and 60 min), 600 μL of a stop solution was added to each sample well and the control sample well in Blank60, […] the reaction. All the sample plates were shaken uniformly and centrifuged at 3220×g for 20 min. 200 μL of test sample supernatant was separately taken and diluted in 200 μL of an aqueous solution containing 0.3% formic acid for LC-MS/MS analysis, and 100 μL of control sample supernatant was taken and diluted in 300 μL of pure water for LC-MS/MS analysis. Calculation was performed according to the following formula: [formula] [formula] [formula] [formula] [formula] [formula]

The next data set concerns the target ERα (Homo sapiens (Human), UniProt P03372). The data set can be described thus: Degradation effect of compound on ERα (ERα DuoSet IC ELISA in MCF-7 cells). Particulars: 24 h with compound; for DC50: read-out: IC50 value of ERα degradation by compound. It counts as cell-based. The protocol: In this test example, ERα DuoSet IC ELISA Kit (R&D, DYC5715) was used to detect the degradation effect of the compound on ERα. On the first day of the experiment, human breast cancer cells MCF-7 (the source was as above) were inoculated into a 24-well plate. The culture medium was an MEM culture medium containing 10% of activated-carbon-treated FBS (Tocyto, UT61204), 1% of pyruvic acid and 1% of nonessential amino acid. The inoculation density was 150,000 cells/well. The cells were cultured at 37° C., 5% CO2 for 24 h.
On the second day of the experiment, the compound to be tested was diluted in gradient and added to a 24-well plate containing cells. The cells were cultured for 24 h at 37° C., 5% CO2. ERα capture antibody was diluted to 1 μg/ml with PBS (Corning, 21-040-CVR) and added to a 96-well plate at 100 μL/well, and the plate was […] coated overnight at room temperature.
On the third day of the experiment, the coated 96-well plate was washed three times with PBS, 300 μL of a blocking solution (R&D, DY995) was added to each well, and the plate was blocked at room temperature for 1 h. The 24-well plate was washed once with PBS, and the residual liquid was sucked off. […] The diluted cell lysate was taken and added to the blocked 96-well plate, with 100 μL per well, and incubated at room temperature for 2 h. The plate was washed three times with a washing solution (R&D, WA126), and a primary antibody was then added. After incubation for 1 h, the 96-well plate was washed four times, a secondary antibody was added, and incubation was carried out at room temperature in the dark for 30 min. The plate was washed four times with the washing solution, and TMB (R&D, DY999) was added. After 15 minutes of development, the reaction was terminated with a stop solution (R&D, DY994), and the light absorption at 450 nm was read.

The mark [3] stands for this setting: human liver microsomes, microsome protein 1 mg/mL working solution, NADPH.
The mark [4] stands for this setting: human liver microsomes, scaled to liver.

Chain of ERα (P03372 whole entry): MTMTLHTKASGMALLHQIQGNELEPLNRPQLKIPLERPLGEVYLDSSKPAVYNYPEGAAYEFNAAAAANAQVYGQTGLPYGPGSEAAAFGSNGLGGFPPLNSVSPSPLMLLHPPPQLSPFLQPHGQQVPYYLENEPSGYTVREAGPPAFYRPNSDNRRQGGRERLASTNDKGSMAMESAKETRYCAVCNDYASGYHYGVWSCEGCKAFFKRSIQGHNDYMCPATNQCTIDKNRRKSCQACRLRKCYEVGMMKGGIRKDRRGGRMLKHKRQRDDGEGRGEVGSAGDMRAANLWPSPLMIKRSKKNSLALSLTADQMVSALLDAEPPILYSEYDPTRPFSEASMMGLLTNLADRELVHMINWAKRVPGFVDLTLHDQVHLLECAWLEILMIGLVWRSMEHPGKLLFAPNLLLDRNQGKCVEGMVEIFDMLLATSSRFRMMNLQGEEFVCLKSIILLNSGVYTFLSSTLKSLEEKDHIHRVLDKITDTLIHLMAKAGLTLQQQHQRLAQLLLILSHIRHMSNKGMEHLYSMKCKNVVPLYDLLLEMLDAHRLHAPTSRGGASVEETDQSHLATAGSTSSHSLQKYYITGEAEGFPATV

Compound `C[C@@H]1Cc2c([nH]c3ccccc23)[C@@H](c2c(F)cc(/C=C/C(=O)O)cc2F)N1CC(C)(C)F` [AZD9496, reference compound] showed an IC50 in data set [1] (Homo sapiens, MCF7) of 3.84 nM.

For `C[C@@H]1Cc2c(ccc3[nH]ncc23)[C@@H](c2ccc(NC3CN(CCCF)C3)cn2)N1CC(F)(F)F` [AZD9833, reference compound], the half-life in data set [2] (setting [3]) stood at 1.33 h. In addition, in data set [2] (setting [4]), the CLint scaled is 15.6 mL/min/kg. In addition, the microsomal CLint in data set [2] (human liver microsomes) was determined as 17.3 µL/min/mg. Also, inhibition in data set [1] (Homo sapiens, MCF7) was half-maximal at 2.45 nM (IC50).

For `C[C@@H]1Cc2c(ccc3[nH]ncc23)[C@@H](c2c(F)cc(OCCN3CC(CF)C3)cc2F)N1CC(C)(C)F` [Comparative Compound 1, (6S,8R)-6-(2,6-difluoro-4-(2-(3-(fluoromethyl)azetidin-1-yl)ethoxy)phenyl)-7-(2-fluoro-2-methylpropyl)-8-methyl-6,7,8,9-tetrahydro-3H-benzopyrazolo[4,3-f]isoquinoline, reference compound], the IC50 is 1.89 nM at ERα and 2.68 nM in data set [1]. The “T1/2” value in data set [2] (setting [3]) was 0.703 h. The “CLint(liver)” value in data set [2] (setting [4]) came out at 29.6 mL/min/kg. Moreover, in data set [2] (human, microsomes), the “CLint(mic)” value stood at 32.9 µL/min/mg.

Take `C[C@@H]1Cc2c(ccc3[nH]c(=O)oc23)[C@@H](c2ccc(NC3CN(CCCF)C3)cn2)N1CC(F)(F)F` [Example 5, (6S,8R)-6-(5-((1-(3-fluoropropane)azetidin-3-yl)amino)pyridin-2-yl)-8-methyl-7-(2,2,2-trifluoroethyl)-6,7,8,9-tetrahydrooxazolo[5,4-f]isoquinolin-2(3H)-one]: in data set [2] (setting [3]), the half-life was 1.26 h. The compound also showed a CLint scaled in data set [2] (setting [4]) of 16.5 mL/min/kg. For the same compound, the microsomal CLint in data set [2] (human liver microsomes) was found to be 18.4 µL/min/mg.

With `C[C@@H]1Cc2c(ccc3[nH]c(=O)oc23)[C@@H](c2c(F)cc(N3CC4(CN(CCF)C4)C3)cc2F)N1CC(F)(F)F` [Example 8, (6S,8R)-6-(2,6-difluoro-4-(6-(2-fluoroethyl)-2,6-diazspiro[3.3]hept-2-yl)phenyl)-8-methyl-7-(2,2,2-trifluoroethyl)-6,7,8,9-tetrahydrooxazolo[5,4-f]isoquinolin-2(3H)-one], the half-life in data set [2] (setting [3]) came to 1.43 h. For the same compound, the CLint scaled in data set [2] (setting [4]) was 14.5 mL/min/kg. Further, the microsomal CLint in data set [2] (human liver microsomes) is 16.1 µL/min/mg.

For `C[C@@H]1Cc2c(ccc3[nH]c(=O)oc23)[C@@H](c2c(F)cc(O[C@H]3CCN(CCCF)C3)cc2F)N1CC(F)(F)F` [Example 11], the DC50 at ERα was found to be 0.62 nM. In addition, the IC50 in data set [1] (Homo sapiens, MCF7) amounted to 0.38 nM.

Regarding `C[C@@H]1Cc2c(ccc3[nH]c(=O)oc23)[C@@H](c2c(F)cc(O[C@H]3CCN(CCCF)C3)cc2F)N1CC(F)(F)CO` [Example 13, (6S,8R)-7-(2,2-difluoro-3-hydroxypropyl)-6-(2,6-difluoro-4-(((S)-1-(3-fluoropropane)pyrrolidin-3-yl)oxy)phenyl)-8-methyl-6,7,8,9-tetrahydrooxazolo[5,4-f]isoquinolin-2(3H)-one], the DC50 on ERα amounted to 0.23 nM. In data set [1] (Homo sapiens, MCF7), the IC50 is 0.3 nM.

For `C[C@@H]1Cc2c(ccc3[nH]c(=O)oc23)[C@@H](c2c(F)cc(OCCNC/C=C/C(=O)N(C)C)cc2F)N1CC(F)(F)F` [Example 16, (E)-4-((2-(3,5-difluoro-4-((6S,8R)-8-methyl-2-oxy-7-(2,2,2-trifluoroethyl)-2,3,6,7,8,9-hexahydrooxazolo[5,4-f]isoquinolin-6-yl)phenoxy)ethyl)amino)-N,N-dimethylbut-2-enamide], it took 0.8 nM to reach half-maximal inhibition in data set [1] (Homo sapiens, MCF7) (IC50).

`C[C@@H]1Cc2c(ccc3[nH]c(=O)oc23)[C@@H](c2ncc(NC3CN(CCCF)C3)cc2F)N1CC(F)(F)F` [Example 27, (6S,8R)-6-(3-fluoro-5-((1-(3-fluoropropyl)azetidin-3-yl)amino)pyridin-2-yl)-8-methyl-7-(2,2,2-trifluoromethyl)-6,7,8,9-tetrahydroxazolo[5,4-f]isoquinolin-2(3H)-one] showed an IC50 in data set [1] (Homo sapiens, MCF7) of 1.63 nM.

In data set [1] (Homo sapiens, MCF7), `COc1cc(NC2CN(CCCF)C2)cnc1[C@@H]1c2ccc3[nH]c(=O)oc3c2C[C@@H](C)N1CC(F)(F)F` [Example 28, (6S,8R)-6-(5-((1-(3-fluoropropyl)azetidin-3-yl)amino)-3-methoxypyridin-2-yl)-8-methyl-7-(2,2,2-trifluoroethyl)-6,7,8,9-tetrahydroxazolo[5,4-f]isoquinolin-2(3H)-one] displayed an IC50 of 0.4 nM.

`C[C@@H]1Cc2c(ccc3[nH]c(=O)oc23)[C@@H](c2ccc(O[C@H]3CCN(CCCF)C3)cn2)N1CC(F)(F)F` [Example 29, (6S,8R)-6-(5-(((S)-1-(3-fluoropropane)pyrrolidin-3-yl)oxy)pyridin-2-yl)-8-methyl-7-(2,2,2-trifluoroethyl)-6,7,8,9-tetrahydrooxazolo[5,4-f]isoquinolin-2(3H)-one]: half-maximal inhibition in data set [1] (Homo sapiens, MCF7) (IC50) required 0.71 nM.

In turn, `C[C@@H]1Cc2c(ccc3[nH]c(=O)oc23)[C@@H](c2c(F)cc(NC3CN(C/C=C/C(=O)N(C)C)C3)cc2F)N1CC(F)(F)F` [Example 35, (E)-4-(3-((3,5-difluoro-4-((6S,8R)-8-methyl-2-oxo-7-(2,2,2-trifluoroethyl)-2,3,6,7,8,9-hexahydrooxazolo[5,4-f]isoquinolin-6-yl)phenyl)amino)azetidin-1-yl)-N,N-dimethylbut-2-enamide] came in with an IC50 in data set [1] (Homo sapiens, MCF7) of 0.82 nM.

In data set [1] (Homo sapiens, MCF7), `C[C@@H]1Cc2c(ccc3[nH]c(=O)oc23)[C@@H](c2c(F)cc(O[C@@H]3CCN(C/C=C/C(=O)N(C)C)C3)cc2F)N1CC(F)(F)F` [Example 37] displayed an IC50 of 0.61 nM.

For the compound `C[C@@H]1Cc2c(ccc3[nH]c(=O)oc23)[C@@H](c2ccc(OCCCN3CCN(CCNc4cccc5c4CN(C4CCC(=O)NC4=O)C5=O)CC3)cn2)N1CC(F)(F)F` (stereo partly drawn) [Example 43, 3-(4-((2-(4-(3-((6-((6S,8R)-8-methyl-2-oxo-7-(2,2,2-trifluoroethyl)-2,3,6,7,8,9-hexahydrooxazolo[5,4-f]isoquinolin-6-yl)pyridin-3-yl)oxy)propyl)piperazin-1-yl)ethyl)amino)-1-oxoisoindolin-2-yl)piperidine-2,6-dione], the DC50 on ERα stood at 0.63 nM. The compound also gave an IC50 in data set [1] (Homo sapiens, MCF7) of 0.69 nM.

As to “(E)-4-((S)-3-((3,5-difluoro4-((6S,8R)-8-methyl-2-oxo-7-(2,2,2-trifluoroethyl)-2,3,6,7, 8,9-hexahydrooxazolo[5,4-f]isoquinolin-6-yl)phenoxy)pyrrolidin-1-yl)-N,N-dimethylbut-2-enamide [Example 39]”, the IC50 in data set [1] amounted to 0.49 nM.
